Residues, ends and D or L forms follow the SMILES beside them. *: point of attachment. Cbz = O=C(OCc1ccccc1)*

What all share (format): cell-based, mouse
In test [1] the test system is DC2.4 cells. The test is described as follows: Effect of inhibitors on H-2Kb/pOV8 expression after acid wash. The method, then: The DC2.4 cells were washed with acid 12 hours after transfection as in FIG. 3. The inhibitors were added at 0 hours (time 0). After 6 hours, the cells were recovered and examined.
The effect of various inhibitors on H-2Kb/pOV8 expression was examined. […] DC2.4 cells were transfected with DNA and after two hours, excess DNA was removed and the cells were further incubated for 12 hours. The cells were washed with acid and the indicated inhibitor was added at the same time. After six hours, H-2Kb/pOV8 expression was measured using 25D1.16 antibody.
Other inhibitors were examined as in the experiment described in [8] above.
The same system in [8] above was used to examine the effect of non-natural amino acids such as canavanine or azetidine. It is known that proteins incorporating non-natural amino acids are easily degraded since they fail to fold properly.

The subject of test [2] is DC2.4 cells. The test is described as follows: H-2Kb/pOV8 presentation after introducing proteins from outside into the cytosol with Chariot. From the text: The presentation of H-2Kb/pOV8 was examined when pOV8-YFP and YFP-pOV8 were introduced directly from the outside into the cytosol of DC2.4 cells.
Chariot was used as a reagent for forcibly making the cell membrane permeable to proteins in solution. It was again examined whether the presentation of pOV8 to H-2Kb was improved by fusion of pOV8 to the N-terminus of YFP as compared to fusion to the C-terminus. The cells were heated in the presence of any of YFP, pOV8-YFP, and YFP-pOV8, and the cell membrane permeabilizing agent Chariot. After washing the cells, a whole cell extract was prepared. After SDS-PAGE, Western blotting was performed using anti-YFP antibody (inset of FIG. 5). In addition, the expression of H-2Kb/pOV8 in these cells was measured using the 25D1.16 antibody.

Test [3] deals with DC2.4 cells. The test is described as follows: H-2Kb/pOV8 expression with or without IFNγ treatment, 25D1.16 antibody. The note with it: DC2.4 cells expressing pOV8-YFP or YFP-pOV8. From the text:
First, DC2.4 cells expressing pOV8-YFP and YFP-pOV8 were respectively treated with IFNγ and analyzed for H-2Kb/pOV8 expression using the 25D1.16 antibody.
Cellular IFNγ treatment causes an increase in class I antigen expression, and the enormous immunological significance of this phenomenon has been elucidated. The principle of N-terminal epitope dominance should play a significant role in direct antigen presentation in the living body, since it brings about an expression difference similar to that which results from the presence or absence of IFNγ treatment.
In the table, the term “whole” means the sum of H-2Kb/pOV8 expression for all cells expressing YFP. The term “at 10^2 fluorescent units” means H-2Kb/pOV8 expression for cells expressing 10^2 fluorescent units of YFP.

Turning to `CCN(CC)CCCC(C)Nc1ccnc2cc(Cl)ccc12` (centres unmarked) [chloroquine], the “effect of inhibitor on H-2Kb/pOV8 expression (presentation)” value in the test on DC2.4 cells [1] is given as “not inhibited”.

As to `N=C(N)NOCC[C@H](N)C(=O)O` [canavanine], the “effect of inhibitor on H-2Kb/pOV8 expression (presentation)” value with DC2.4 cells [1] is “no variation”. For `CC(C)C[C@@H](C=O)NC(=O)[C@H](CC(C)C)NC(=O)[C@H](CC(C)C)NC(=O)OCc1ccccc1` [MG132] (Cbz-Leu-Leu-Leu-aldehyde), the “effect on antigen presentation of OVA administered with Chariot” value with DC2.4 cells [2] (OVA plus Chariot) is “reduced antigen presentation”. As for `COc1ccc(C[C@H]2NC[C@H](O)[C@H]2OC(C)=O)cc1` [anisomycin], the “effect of inhibitor on H-2Kb/pOV8 expression (presentation)” value in the test with DC2.4 cells [1] is “inhibited”. Same read-out and setting: then a-amanitin, with “Recovery in H-2Kb/pOV8 expression was not observed”. Consider “IFNγ: cytokine used to treat cells; known to increase MHC class I antigen expression”, for which, in the test on DC2.4 cells [3], the “effect of IFNγ treatment on H-2Kb/pOV8 expression” value is reported as “increased”. As for “OVA: full-length OVA antigen protein containing the pOV8 epitope”, in the test on DC2.4 cells [2] (protein administered to cells in the presence of Chariot), the “presentation of H-2Kb/pOV8” value is “slight presentation of H-2Kb/pOV8 was observed”. For `C1CNC1` [azetidine], in the test with DC2.4 cells [1], the “effect of inhibitor on H-2Kb/pOV8 expression (presentation)” value was “no effect on antigen presentation”.

The record behind these values is US20090280511A1, “Methods for selecting candidate peptides presented on the surface of cancer cells following their binding to MHC class I molecules” (priority 2008, published 2009).
